Tests used:
PaArr [1] = target: T1, PaArr (Pseudomonas aeruginosa, UniProt O87490); test: fluorescent NAD+ conversion assay; assay type: biochemical
T1 construct: gene arr-2; class 1 integron gene; codon-optimized; His6-MBP tag cut off with TEV; E. coli BL21(DE3); monomer

MsArr = target: T2, MsArr (Mycolicibacterium smegmatis, UniProt A0QRS5, V47I/Y72F); test: fluorescent NAD+ conversion assay; assay type: biochemical
T2 construct: gene MSMEG_1221; V47I Y72F variant gene; His6-MBP tag cut off with TEV; E. coli BL21(DE3)

MaArr [2] = target: T3, MaArr (Mycobacteroides abscessus, UniProt B1MH05); test: fluorescent NAD+ conversion assay; assay type: biochemical
T3 construct: gene MAB_0591; chromosomal gene; codon-optimized; His6-MBP tag cut off with TEV; E. coli BL21(DE3)

PaArr [3] = target: T1, PaArr; test: fluorescent NAD+ conversion assay; assay type: biochemical; remark: listed apart in the source
TNKS2 = target: T4, TNKS2 (Homo sapiens, UniProt Q9H2K2); test: human ADP-ribosyltransferase activity panel; assay type: biochemical
T4 sequence (Q9H2K2 1-1166): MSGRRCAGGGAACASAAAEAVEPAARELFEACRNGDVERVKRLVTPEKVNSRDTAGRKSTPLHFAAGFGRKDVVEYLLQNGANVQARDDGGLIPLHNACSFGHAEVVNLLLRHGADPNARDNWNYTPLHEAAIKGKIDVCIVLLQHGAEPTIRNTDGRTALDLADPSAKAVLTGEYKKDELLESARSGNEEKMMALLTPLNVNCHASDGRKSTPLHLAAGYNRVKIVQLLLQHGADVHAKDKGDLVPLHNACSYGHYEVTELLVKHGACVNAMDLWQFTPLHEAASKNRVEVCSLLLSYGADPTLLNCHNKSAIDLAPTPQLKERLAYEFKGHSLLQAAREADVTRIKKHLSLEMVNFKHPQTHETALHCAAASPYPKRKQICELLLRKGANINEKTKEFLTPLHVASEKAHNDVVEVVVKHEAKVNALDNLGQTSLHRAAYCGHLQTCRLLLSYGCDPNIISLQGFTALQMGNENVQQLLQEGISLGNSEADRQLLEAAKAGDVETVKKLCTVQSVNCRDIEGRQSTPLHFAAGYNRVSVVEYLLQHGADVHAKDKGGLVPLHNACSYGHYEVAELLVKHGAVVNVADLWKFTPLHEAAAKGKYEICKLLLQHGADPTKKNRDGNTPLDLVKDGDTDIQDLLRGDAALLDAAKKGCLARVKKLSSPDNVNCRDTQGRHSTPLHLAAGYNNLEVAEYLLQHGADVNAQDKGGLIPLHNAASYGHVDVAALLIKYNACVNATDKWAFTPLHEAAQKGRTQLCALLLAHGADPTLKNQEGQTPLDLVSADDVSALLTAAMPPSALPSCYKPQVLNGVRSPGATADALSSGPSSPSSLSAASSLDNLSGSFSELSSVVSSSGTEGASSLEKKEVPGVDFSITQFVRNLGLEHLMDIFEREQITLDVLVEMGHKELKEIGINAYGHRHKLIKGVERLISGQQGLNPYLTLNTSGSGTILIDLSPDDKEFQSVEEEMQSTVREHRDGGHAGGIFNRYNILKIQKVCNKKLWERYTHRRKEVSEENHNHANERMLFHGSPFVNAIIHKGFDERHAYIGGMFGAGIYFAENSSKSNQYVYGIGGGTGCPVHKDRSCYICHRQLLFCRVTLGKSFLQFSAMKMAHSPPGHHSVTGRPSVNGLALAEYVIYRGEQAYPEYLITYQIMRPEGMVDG

MaArr [4] = target: T3, MaArr; test: fluorescent NAD+ conversion assay; assay type: biochemical; remark: listed apart in the source
PARP2 = PARP2 (Homo sapiens, UniProt Q9UGN5); test: human ADP-ribosyltransferase activity panel; assay type: biochemical
SmArr = tested on: T5, SmArr; test: fluorescent NAD+ conversion assay; assay type: biochemical, Stenotrophomonas maltophilia; details: 1 µM NAD+, 2 µM rifampicin, 50 mM PIPES pH 7.5, 0.01% Triton X-100, room temperature
T5 construct: gene arr; class 1 integron gene; codon-optimized; His6-MBP tag cut off with TEV; E. coli BL21(DE3)

PaArr [5] = target: T1, PaArr; test: X-ray crystal structure, […] Å; assay type: binding; details: crystal with 1 mM rifampicin; an additional rifampicin molecule at crystal contacts, likely artifact

## Nc1nc2ccc(Cl)cc2c(O)c1-c1ccccc1 [compound 1]
PaArr [1]
  inhibition at 100 µM: < 50%
MsArr
  IC50: 1300 nM
MaArr [2]
  inhibition at 100 µM: < 50%

## NS(=O)(=O)c1ccc(-c2nc3ccccc3c(=O)[nH]2)cc1 [compound 2]
PaArr [3]
  IC50: 10000 to 100000 nM
TNKS2
  IC50: showed strong inhibition of TNKS2 and PARP2 as expected (Figure 3E)
MaArr [4]
  IC50: 10000 to 100000 nM
MsArr
  IC50: 2000 nM
PARP2
  IC50: showed strong inhibition of TNKS2 and PARP2 as expected (Figure 3E)
SmArr
  IC50: 10000 to 100000 nM

## O=c1c(O)c(-c2cc(O)c(O)c(O)c2)oc2cc(O)cc(O)c12 [compound 7]
PaArr [3]
  IC50: 470 nM
SmArr
  IC50: 1700 nM

## Oc1ccc(O)c2c1sc1nncn12 [compound 13, 13]
SmArr
  IC50: 1200 nM

## CO[C@H]1/C=C/O[C@@]2(C)Oc3c(C)c(O)c4c(O)c(c(/C=N/N5CCN(C)CC5)c(O)c4c3C2=O)NC(=O)/C(C)=C\C=C\[C@H](C)[C@H](O)[C@@H](C)[C@@H](O)[C@@H](C)[C@H](OC(C)=O)[C@@H]1C [rifampicin]
PaArr [5]
  X-ray crystal structure, 1.4 Å: In the crystal structure of PaArr, an additional rifampicin molecule stacks against these two areas
